Values after ≈ are worked out from the molar mass of the structure shown. Read-outs that look alike come from different tables or passages of the source.
Legend:
[1] = target: T1, full-length beta-Catenin (Uniprot ID P35222) (Homo sapiens, UniProt P35222); experiment: Fluorescence polarization IC50 (beta-catenin / 5FAM-TCF4 10-53 competition); assay type: binding
T1 construct: 10 nM full-length beta-Catenin (Uniprot ID P35222)
T1 sequence (P35222 1-781): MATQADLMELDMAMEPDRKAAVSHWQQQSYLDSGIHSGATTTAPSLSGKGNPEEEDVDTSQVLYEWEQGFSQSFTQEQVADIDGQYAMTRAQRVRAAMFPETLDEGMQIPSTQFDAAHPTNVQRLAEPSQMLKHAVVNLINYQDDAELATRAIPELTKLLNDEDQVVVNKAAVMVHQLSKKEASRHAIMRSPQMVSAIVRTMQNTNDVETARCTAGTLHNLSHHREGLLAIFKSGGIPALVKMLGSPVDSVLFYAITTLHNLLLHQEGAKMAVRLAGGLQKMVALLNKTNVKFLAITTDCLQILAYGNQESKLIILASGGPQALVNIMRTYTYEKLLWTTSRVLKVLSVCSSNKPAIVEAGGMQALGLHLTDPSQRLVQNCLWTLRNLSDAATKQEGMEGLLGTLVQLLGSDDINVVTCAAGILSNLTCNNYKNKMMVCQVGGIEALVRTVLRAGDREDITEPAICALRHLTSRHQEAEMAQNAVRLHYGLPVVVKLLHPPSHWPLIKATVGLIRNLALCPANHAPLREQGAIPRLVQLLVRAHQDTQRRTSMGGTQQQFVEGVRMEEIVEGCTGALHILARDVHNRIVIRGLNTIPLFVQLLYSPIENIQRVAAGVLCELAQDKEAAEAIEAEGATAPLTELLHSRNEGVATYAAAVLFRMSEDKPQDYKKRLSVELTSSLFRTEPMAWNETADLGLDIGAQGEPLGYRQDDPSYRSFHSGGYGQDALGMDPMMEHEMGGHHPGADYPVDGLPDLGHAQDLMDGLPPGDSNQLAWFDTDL

CHI Log D procedure = assay type: physicochemical; conditions: for CHI Log D: pH 7.4; for chromatographic logD: pH 7.4, CHI Log D
Solubility in PBS = assay type: physicochemical
In short: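 Read-out is the HPLC peak area of the supernatant from ultracentrifuged PBS solution, scaled against a 50 μM peptide DMSO injection; value reported as [(PBS area)/(DMSO area)]*50 uM.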

[2] = fluorescence polarization, read-out: beta-Catenin FP IC50

Row | IC50 [1, 2] | IC50 ([1]; read-out: FP EC50) | CHI Log D (CHI Log D procedure) | Solubility (Solubility in PBS) | chromatographic logD (CHI Log D procedure) | Solubility (Solubility in PBS; Solubility (uM)) | Compound
1 | 88 nM |  |  | 50 µM (≈ 92.5 µg/mL) | 2.21 |  | CC(=O)N1CCC[C@]12CC=CCCCC1(CCCC=CCCCCCC[C@@](C)(C(=O)N[C@@H](Cc3ccccc3)C(=O)N[C@@H](Cc3csc4ccccc34)C(=O)N[C@@H](Cc3ccco3)C(N)=O)NC(=O)[C@H](CCC(N)=O)NC(=O)[C@H](Cc3ccccc3)NC(=O)[C@H](C)NC(=O)[C@H](C)NC(=O)[C@H](CCC(=O)O)NC(=O)[C@H](CC(=O)O)NC1=O)NC(=O)[C@H](C)NC(=O)[C@H](CC(=O)O)NC2=O (stereo partly drawn) [I-490, Ac-PL3-Asp-Ala-B5-Asp-Glu-Ala-Ala-Phe-Gln-S8-Phe-BztA-2FurA-NH2]
2 | 153 nM | 153 nM | 2.023 | 39 µM (≈ 70.7 µg/mL) |  |  | CC(=O)N1CCC[C@]12CC=CCCCC1(CCCC=CCCCCCC[C@@](C)(C(=O)N[C@@H](Cc3ccccc3)C(=O)N[C@@H](Cc3csc4ccccc34)C(=O)N[C@@H](CCO)C(N)=O)NC(=O)[C@H](CCC(N)=O)NC(=O)[C@H](Cc3ccccc3)NC(=O)[C@H](C)NC(=O)[C@H](C)NC(=O)[C@H](CCC(=O)O)NC(=O)[C@H](CC(=O)O)NC1=O)NC(=O)[C@H](C)NC(=O)[C@H](CC(=O)O)NC2=O (stereo partly drawn) [I-491, Ac-PL3-Asp-Ala-B5-Asp-Glu-Ala-Ala-Phe-Gln-S8-Phe-BztA-Hse-NH2]
3 | 53 nM | 53 nM | 2.052 | 49 µM (≈ 88.9 µg/mL) |  |  | CC(=O)N1CCC[C@]12CC=CCCCC1(CCCC=CCCCCCC[C@@](C)(C(=O)N[C@@H](Cc3ccccc3)C(=O)N[C@@H](Cc3csc4ccccc34)C(=O)N[C@@H](CCO)C(N)=O)NC(=O)[C@H](CCC(N)=O)NC(=O)[C@H](Cc3ccccc3)NC(=O)[C@H](C)NC(=O)[C@H](C)NC(=O)[C@H](CCC(=O)O)NC(=O)[C@H](CC(=O)O)NC1=O)NC(=O)[C@H](C)NC(=O)[C@H](CC(=O)O)NC2=O (stereo partly drawn) [I-492, Ac-PL3-Asp-Ala-B5-Asp-Glu-Ala-Ala-Phe-Gln-S8-Phe-BztA-Hse-NH2]
4 | 88 nM |  |  | 50 µM (≈ 90 µg/mL) | 2.2 |  | CC(=O)N1CCC[C@]12CC=CCCCC1(CCCC=CCCCCCC[C@@](C)(C(=O)N[C@@H](Cc3ccccc3)C(=O)N[C@@H](Cc3csc4ccccc34)C(=O)N[C@H](CO)C(N)=O)NC(=O)[C@H](CCC(N)=O)NC(=O)[C@H](Cc3ccccc3)NC(=O)[C@H](C)NC(=O)[C@H](C)NC(=O)[C@H](CCC(=O)O)NC(=O)[C@H](CC(=O)O)NC1=O)NC(=O)[C@H](C)NC(=O)[C@H](CC(=O)O)NC2=O (stereo partly drawn) [I-493, Ac-PL3-Asp-Ala-B5-Asp-Glu-Ala-Ala-Phe-Gln-S8-Phe-BztA-DSer-NH2]
5 | 82 nM |  |  |  | 2.05 | 44 µM (≈ 81 µg/mL) | CC(=O)N1CCC[C@]12CC=CCCCC1(CCCC=CCCCCCC[C@@](C)(C(=O)N[C@@H](Cc3ccccc3)C(=O)N[C@@H](Cc3csc4ccccc34)C(=O)N[C@H](CCC(N)=O)C(N)=O)NC(=O)[C@H](CCC(N)=O)NC(=O)[C@H](Cc3ccccc3)NC(=O)[C@H](C)NC(=O)[C@H](C)NC(=O)[C@H](CCC(=O)O)NC(=O)[C@H](CC(=O)O)NC1=O)NC(=O)[C@H](C)NC(=O)[C@H](CC(=O)O)NC2=O (stereo partly drawn) [I-494, Ac-PL3-Asp-Ala-B5-Asp-Glu-Ala-Ala-Phe-Gln-S8-Phe-BztA-DGIn-NH2]

Further lines, the molecule ahead of its results:

Row | Compound | IC50 [1, 2] | IC50 ([1]; read-out: FP EC50) | CHI Log D (CHI Log D procedure) | Solubility (Solubility in PBS) | chromatographic logD (CHI Log D procedure) | Solubility (Solubility in PBS; Solubility (uM))
6 | CC(=O)N1CCC[C@]12CC=CCCCC1(CCCC=CCCCCCC[C@@](C)(C(=O)N[C@@H](Cc3ccccc3)C(=O)N[C@@H](Cc3csc4ccccc34)C(=O)N[C@@H](CCC(N)=O)C(N)=O)NC(=O)[C@H](CCC(N)=O)NC(=O)[C@H](Cc3cccs3)NC(=O)[C@H](C)NC(=O)[C@H](C)NC(=O)[C@H](CCC(=O)O)NC(=O)[C@H](CC(=O)O)NC1=O)NC(=O)[C@H](C)NC(=O)[C@H](CC(=O)O)NC2=O (stereo partly drawn) [I-486, Ac-PL3-Asp-Ala-B5-Asp-Glu-Ala-Ala-2Thi-Gln-S8-Phe-BztA-Gln-NH2] | 147 nM | 147 nM | 1.97 | 50 µM (≈ 92.4 µg/mL) |  | 
7 | CC(=O)N1CCC[C@]12CC=CCCCC1(CCCC=CCCCCCC[C@@](C)(C(=O)N[C@@H](Cc3ccccc3)C(=O)N[C@@H](Cc3csc4ccccc34)C(=O)N[C@@H](CCC(N)=O)C(N)=O)NC(=O)[C@H](CCC(N)=O)NC(=O)[C@H](Cc3cccs3)NC(=O)[C@H](C)NC(=O)[C@H](C)NC(=O)[C@H](CCC(=O)O)NC(=O)[C@H](CC(=O)O)NC1=O)NC(=O)[C@H](C)NC(=O)[C@H](CC(=O)O)NC2=O (stereo partly drawn) [I-487, Ac-PL3-Asp-Ala-B5-Asp-Glu-Ala-Ala-2Thi-Gln-S8-Phe-BztA-Gln-NH2] | 45 nM | 45 nM | 1.99 | 44 µM (≈ 81.3 µg/mL) |  | 
8 | CC[C@H](C)[C@@H]1NC(=O)[C@H](CC(=O)O)NC(=O)[C@]2(CC=CCCCC3(CCCC=CCCCCCC[C@@](C)(C(=O)N[C@@H](Cc4ccccc4)C(=O)N[C@@H](Cc4csc5ccccc45)C(=O)N[C@@H](Cc4c[nH]cn4)C(N)=O)NC(=O)[C@H](CCC(N)=O)NC(=O)[C@H](Cc4cccs4)NC(=O)[C@H](C)NC(=O)[C@H](C)NC(=O)[C@H](CCC(=O)O)NC(=O)[C@H](CC(=O)O)NC3=O)NC1=O)CCCN2C(C)=O (stereo partly drawn) [I-488, Ac-PL3-Asp-Ile-B5-Asp-Glu-Ala-Ala-2Thi-Gln-S8-Phe-BztA-His-NH2] | 43 nM |  |  |  | 2.4 | 30 µM (≈ 56.9 µg/mL)
9 | CC[C@H](C)[C@@H]1NC(=O)[C@H](CC(=O)O)NC(=O)[C@]2(CC=CCCCC3(CCCC=CCCCCCC[C@@](C)(C(=O)N[C@@H](Cc4ccccc4)C(=O)N[C@@H](Cc4csc5ccccc45)C(=O)N[C@@H](Cc4c[nH]cn4)C(N)=O)NC(=O)[C@H](CCC(N)=O)NC(=O)[C@H](Cc4cccs4)NC(=O)[C@H](C)NC(=O)[C@H](C)NC(=O)[C@H](CC(=O)O)NC(=O)[C@H](CC(=O)O)NC3=O)NC1=O)CCCN2C(C)=O (stereo partly drawn) [I-489, Ac-PL3-Asp-Ile-B5-Asp-Asp-Ala-Ala-2Thi-Gln-S8-Phe-BztA-His-NH2] | 57 nM |  |  |  | 2.34 | 36 µM (≈ 67.8 µg/mL)
10 | CC(=O)N1CCC[C@]12CC=CCCCC1(CCCC=CCCCCCC[C@@](C)(C(=O)N[C@@H](Cc3ccccc3)C(=O)N[C@@H](Cc3csc4ccccc34)C(=O)N[C@@H](Cc3c[nH]cn3)C(N)=O)NC(=O)[C@H](CCC(N)=O)NC(=O)[C@H](Cc3ccccc3)NC(=O)[C@H](C)NC(=O)[C@H](C)NC(=O)[C@H](CN(CC(=O)O)CC(F)(F)F)NC(=O)[C@H](CC(=O)O)NC1=O)NC(=O)[C@H](C)NC(=O)[C@H](CC(=O)O)NC2=O (stereo partly drawn) [I-499, Ac-PL3-Asp-Ala-B5-Asp-TfeGA-Ala-Ala-Phe-Gln-S8-Phe-BztA-His-NH2] | 123 nM |  |  |  | 2.17 | 48 µM (≈ 93.5 µg/mL)
11 | CC[C@H](C)[C@@H]1NC(=O)[C@H](CC(=O)O)NC(=O)[C@]2(CC=CCCCC3(CCCC=CCCCCCC[C@@](C)(C(=O)N[C@@H](Cc4ccccc4)C(=O)N[C@@H](Cc4csc5ccccc45)C(=O)N[C@@H](Cc4c[nH]cn4)C(N)=O)NC(=O)[C@H](CCC(N)=O)NC(=O)[C@H](Cc4ccccc4)NC(=O)[C@H](C)NC(=O)[C@H](C)NC(=O)[C@H](CN(CC(=O)O)CC(F)(F)F)NC(=O)[C@H](CC(=O)O)NC3=O)NC1=O)CCCN2C(C)=O (stereo partly drawn) [I-500, Ac-PL3-Asp-Ile-B5-Asp-TfeGA-Ala-Ala-Phe-Gln-S8-Phe-BztA-His-NH2] | 176 nM |  |  |  | 2.63 | 28 µM (≈ 55.7 µg/mL)
12 | CC(=O)N1CCC[C@]12CC=CCCCC1(CCCC=CCCCCCC[C@@](C)(C(=O)N[C@@H](Cc3ccccc3)C(=O)N[C@@H](Cc3csc4ccccc34)C(=O)N[C@@H](CCC(N)=O)C(N)=O)NC(=O)[C@H](CCC(N)=O)NC(=O)[C@H](Cc3ccccc3)NC(=O)[C@H](C)NC(=O)[C@H](C)NC(=O)[C@H](CCC(=O)O)NC(=O)[C@H](CC(=O)O)NC1=O)NC(=O)[C@H](CC(F)(F)F)NC(=O)[C@H](CC(=O)O)NC2=O (stereo partly drawn) [I-501, Ac-PL3-Asp-F3CA-B5-Asp-Glu-Ala-Ala-Phe-Gln-S8-Phe-BztA-Gln-NH2] | 94 nM | 94 nM | 2.138 | 49 µM (≈ 93.5 µg/mL) |  | 
13 | CC(=O)N1CCC[C@]12CC=CCCCC1(CCCC=CCCCCCC[C@@](C)(C(=O)N[C@@H](Cc3ccccc3)C(=O)N[C@@H](Cc3csc4ccccc34)C(=O)N[C@@H](CCC(N)=O)C(N)=O)NC(=O)[C@H](CCC(N)=O)NC(=O)[C@H](Cc3ccccc3)NC(=O)[C@H](C)NC(=O)[C@H](C)NC(=O)[C@H](CCC(=O)O)NC(=O)[C@H](CC(=O)O)NC1=O)NC(=O)[C@H](CC(F)(F)F)NC(=O)[C@H](CC(=O)O)NC2=O (stereo partly drawn) [I-502, Ac-PL3-Asp-F3CA-B5-Asp-Glu-Ala-Ala-Phe-Gln-S8-Phe-BztA-Gln-NH2] | 55 nM | 55 nM | 2.171 | 50 µM (≈ 95.5 µg/mL) |  | 
